Experimental findings from US20040077888A1, “Polyamine-mediated transfection” (The Regents of the University of California, priority 2002, published 2004) are described below.

In assay [1] the test system is NIH 3T3 cells. As to the kind of experiment: Transfection of NIH 3T3 cells, luciferase assay. The settings on record: for luciferase expression: FIG. 4, vs dimyristoyl analogs with the same DNA-binding domain. The format is cell-based. Here is the method:
(§1) Cell Culture. CHO cells (ATCC, Rockville, Md.) were cultured in 75 cm^2 cell culture flasks with HAMS F12 media containing 10% bovine calf serum. NIH 3T3 cells were grown in Dulbecco's modified Eagle's medium with 10% fetal calf serum. The cells were maintained at 37° C. in a 5% CO2 environment. Twenty-four hours prior to transfection, cells were split into 24 well plates at 60% confluence.
(§2) Transfection of CHO and NIH 3T3 Cells. Liposomal suspensions of the polyamines were diluted with Dulbecco's modified essential media (serum free) to obtain the desired concentration. The suspensions were vortex mixed followed by addition of an appropriate quantity of DNA to yield lipoplex preparations at the desired N/P ratio. […] Immediately prior to transfection, the cells were prepared by aspiration of the growth media. The lipoplex preparation was added to the cells (200 μL, 1 μg DNA/well). After incubation for 2 hours, the lipoplex solution was aspirated and replaced with growth media (500 μL),
(§3) Luciferase Assay. Cells were lysed 24 hours after lipoplex administration by adding 200 μL lysis buffer. Luciferase activity was assayed using the Enhanced Luciferase Assay Kit and a Moonlight 2010 luminometer (Pharmingen, San Diego, Calif.). Luciferase activity was measured as Relative Light Units (RLUs) from an aliquot of the cell lysate over a 10 sec. period. A luciferase standard curve was produced using serial dilutions of purified firefly luciferase (Pharmingen, San Diego, Calif.). Using the standard curve, relative light units are converted to μg of luciferase per μL of sample assayed, and expressed as μg luciferase per 60,000 cells. To ensure luminometer consistency, the instrument is calibrated with a luminometer light standard containing ^14C-toluene (Pharmingen, San Diego, Calif.).

The next assay deals with pCMV.FOX.Luc-2. As to the kind of experiment: Ethidium bromide displacement assay (DNA condensation). In kind it is binding. The settings on record: polyamine:cholesterol liposomes, FIGS. 1A-C. The procedure: The assay set forth in FIGS. 1A-C is based on a decrease in fluorescence that occurs when ethidium bromide is displaced from DNA by adding cationic liposomes. The lipoplexes were formed by adding a DNA-ethidium bromide solution to a solution containing variable amounts of polyamine:cholesterol liposomes. The lipoplexes were then treated with an equal volume of either water or a TRIS buffered solution at various pHs. The resulting fluorescence was then measured to determine the relative concentration of intercalated ethidium bromide.
Ethidium Bromide Displacement Assay. Ethidium bromide (153 μL of a 0.01% solution) was added to 96 μg of pCMV.FOX.Luc-2. This DNA-ethidium bromide solution was diluted to a final volume of 6 mL. Different concentrations of the polyamine liposomes were added to each well of a 96 well microplate, to which 50 μL of the DNA-ethidium bromide solution was added to obtain a final volume of 100 μL. After 5 min. the lipoplexes were treated with 100 μL of water or buffer and gently shaken. The resulting fluorescence at 250 nm excitation and 610 nm emission was measured using a SpectraMax XS microplate fluorometer (Molecular Devices, Oregon).

Assay [2] deals with CHO cells. Kind of assay: Transfection of CHO cells, luciferase assay. The format is cell-based. The settings on record: for luciferase expression: FIG. 3, vs dimyristoyl analogs with the same DNA-binding domain; for transfection activity compared with LipofectAMINE PLUS and TransFast: two cell lines (CHO, NIH-3T3), luciferase and GFP vector. The procedure:
as §1, §2, §3

The test system of assay [3] is CHO cells. As to the kind of experiment: GFP-annexin V flow cytometric assay in CHO cells. In kind it is cell-based. The settings on record: for GFP expression: FIG. 5, polyamines vs dimyristoyl analogs with the same DNA-binding domain. On the technique in general: In flow cytometry, cells or beads pass a laser one at a time.
Procedure: Cell Culture. CHO cells (ATCC, Rockville, Md.) were cultured in 75 cm^2 cell culture flasks with HAMS F12 media containing 10% bovine calf serum. […] The cells were maintained at 37° C. in a 5% CO2 environment. Twenty-four hours prior to transfection, cells were split into 24 well plates at 60% confluence.
Flow Cytometry. Cells transfected with the plasmid vector pNDeGFP were trypsinized 24 h after transfection and resuspended in Dulbecco's phosphate buffered saline (DPBS). The resuspended cells were incubated 30 min. in a solution (1:40 dilution of commercial stock) containing annexin V conjugated to biotin (CalTag, Burlingame, Calif.). After a second DPBS wash, the cells were resuspended 30 min. in a solution (1:400 dilution of commercial stock) of the Tri-color fluorophore conjugated to streptavidin (CalTag, Burlingame, Calif.). After a final DPBS wash, the cells were resuspended in 500 μL DPBS. The cells were then analyzed using a dual channel FACScan (Becton Dickinson, San Jose, Calif.) with a 15 mW, 488 nm argon laser.
Using standard techniques, FACScan gating was set with control cells that were prepared simultaneously with the transfected cells. […] GFP fluorescence was measured with a 530/30 band pass filter on channel FL1. The Tri-color fluorescence was measured with a 675 nm band pass filter on channel FL2. Transfection and mean expression were determined using the FL1 autofluorescence signal from control cells, compared to the transfected cell population.
To further determine the influence of the chemical linker on cytotoxicity, flow cytometry was used to measure cell viability. Using a GFP-annexin V flow cytometric assay, cytotoxicity was simultaneously evaluated in transfected and total cell populations.
The subject of assay [4] is NIH 3T3 cells. Kind of assay: GFP-annexin V flow cytometric assay in NIH 3T3 cells. The settings on record: FIG. 6, polyamines vs dimyristoyl analogs with the same DNA-binding domain. The format is cell-based. The procedure: as §1, §2
Flow Cytometry. […] The cells were then analyzed using a dual channel FACScan (Becton Dickinson, San Jose, Calif.) with a 15 mW, 488 nm argon laser.
Using standard techniques, FACScan gating was set with control cells that were prepared simultaneously with the transfected cells. […] GFP fluorescence was measured with a 530/30 band pass filter on channel FL1. The Tri-color fluorescence was measured with a 675 nm band pass filter on […]. Transfection and mean expression were determined using the FL1 autofluorescence signal from control cells, compared to the transfected cell population.
Actinomycin-D (Sigma, St. Louis, Mo.) was used to treat non-transfected cells 24 hours prior to the assay to induce apoptosis. […] Non-treated cells were analyzed to establish baseline cytotoxicity and background auto-fluorescence. Each condition was transfected in triplicate and ten thousand cells were counted and simultaneously analyzed for GFP (transfection and expression) and Tri-color (annexin V) fluorescence. […]

For `CCCCCCCCCCCCCC(=O)OCC(COC(=O)CCCCCCCCCCCCC)(COC(=O)CCNCCN(C)C)COC(=O)CCNCCN(C)C` [polyamine 5], in the assay with NIH 3T3 cells [1], the “transfection activity among the polyamines” value is “superior to the other polyamines”.

In the case of `CCCCCCCC/C=C\CCCCCCCC(=O)OCC(COC(=O)CCCCCCC/C=C\CCCCCCCC)(COC(=O)CCNCCN(C)C)COC(=O)CCNCCN(C)C` [polyamine 8], the DNA condensation entry with pCMV.FOX.Luc-2 is “condensed DNA with efficiency”. For the same molecule, the luciferase expression result with CHO cells [2] (CHO cells) and in the assay on NIH 3T3 cells [1] was “higher levels” each time. In addition, the “transfection activity compared with LipofectAMINE PLUS and TransFast” value in the assay on CHO cells [2] is “roughly comparable to LipofectAMINE PLUS and TransFast”. Further, the “transfection activity among the polyamines” value with NIH 3T3 cells [1] is “superior to the other polyamines”. The GFP expression entry in the assay on CHO cells [3] and with NIH 3T3 cells [4] was “higher levels” in each case.

`CCCCCCCC/C=C\CCCCCCCC(=O)OCC(COC(=O)CCCCCCC/C=C\CCCCCCCC)(COC(=O)CCNCCCN(C)C)COC(=O)CCNCCCN(C)C` [polyamine 9]: the DNA condensation entry in the assay with pCMV.FOX.Luc-2 is “condensed DNA with efficiency”. Further, the “transfection activity among the polyamines” value in the assay on CHO cells [2] (CHO cells) is recorded as “most active analog”. Besides, the luciferase expression entry with CHO cells [2] (CHO cells) and in the assay with NIH 3T3 cells [1] was “higher levels” in each case. Besides, in the assay on CHO cells [2], the “transfection activity compared with LipofectAMINE PLUS and TransFast” value was “roughly comparable to LipofectAMINE PLUS and TransFast”. In addition, the GFP expression result in the assay with CHO cells [3] and in the assay with NIH 3T3 cells [4] was “higher levels” in each case. In the assay on CHO cells [3] (FIG. 5 black bars), the “population of cells expressing GFP (GFP positive, Annexin V negative)” value was “largest population of cells expressing GFP with extremely low cytotoxicity”.

For `CCCCCCCC/C=C\CCCCCCCC(=O)OCC(COC(=O)CCCCCCC/C=C\CCCCCCCC)(COC(=O)CCNCCCCN(C)C)COC(=O)CCNCCCCN(C)C` [polyamine 10], the DNA condensation result with pCMV.FOX.Luc-2 is “condensed DNA with efficiency”. Further, the luciferase expression entry in the assay on CHO cells [2] (CHO cells) and with NIH 3T3 cells [1] was “higher levels” each time. Further, the GFP expression entry in the assay on CHO cells [3] and in the assay with NIH 3T3 cells [4] was “higher levels” in each case.
